According to PMC9126595, “Identification of 3-(piperazinylmethyl)benzofuran derivatives as novel type II CDK2 inhibitors: design, synthesis, biological evaluation, and in silico insights” (Journal of Enzyme Inhibition and Medicinal Chemistry, 2022):
Where two headings read alike, the source gives them in different places.

Key:
[1] = system: MCF-7 breast cancer cell line; experiment: SRB anti-proliferative assay, MCF-7; format: cell-based, human; details: SRB, 48 h, mean of 3 separate experiments, read-out: IC50 MCF-7
Source text: (§1) The experimental details for the performed biological assays; Sulforhodamine B (SRB) cytotoxicity, CDK2 kinase, Annexin V-FITC apoptosis, and cell cycle assays[86–89] were mentioned in the Supporting Information.
(§2) 1. Anti-proliferative activity assay
(§3) The examined human pancreatic cancer (Panc-1), breast cancer (MCF-7), and lung carcinoma (A549) cell lines have been obtained from American Type Culture Collection (ATCC). The cells were maintained in Dulbecco's modified Eagle's medium (DMEM) supplemented with 10% heat inactivated fetal calf serum (GIBCO), penicillin (100 U/ml) and streptomycin (100 µg/ml) at 37 °C in humidified atmosphere containing 5% CO2. […]
(§4) a 25 cm2 flask in 5 ml of culture medium. The anti-proliferative activity of the tested 3-(piperazinylmethyl)benzofurans (9, 11, 13, 15 and 17) was measured in vitro using the Sulfo-Rhodamine-B stain (SRB) assay. Briefly, cells were plated out in 96-well microtiter plate (0.5X10^4 cells/well) and incubated for 24 h before treatment with the tested hybrids to allow cells to attach to the bottom of the well of the plate. Tested benzofurans were dissolved in DMSO at 1 mg/ml immediately before use and diluted to the appropriate volume just before addition to the cell culture. Different concentrations of tested benzofurans, and Staurosporine were added to the cells (three wells were prepared for each individual dose). Cells were incubated with the hybrids for 48 […]
(§5) After 48 h cells were fixed, washed, and stained for 30 min with 0.4% (w/v) SRB dissolved in 1% acetic acid. Unbound dye was removed by four washes with 1% acetic acid, and attached stain was recovered with Tris-EDTA buffer. Color intensity was measured in an ELISA reader. The relation between percent of surviving fraction and log drug concentration is plotted to get the survival curve for each cell line. […]

[2] = system: A-549 lung carcinoma cell line; experiment: SRB anti-proliferative assay, A-549; format: cell-based, human; details: SRB, 48 h, mean of 3 separate experiments, read-out: IC50 A-549
Source text: as §1, §2, §3, §4, §5

[3] = system: Panc-1 pancreatic cancer cell line; experiment: SRB anti-proliferative assay, Panc-1; format: cell-based, human; details: SRB, 48 h, mean of 3 separate experiments, read-out: IC50 Panc-1
Source text: as §1, §2, §3, §4, §5

CDK2 = target: T1, CDK2 (Homo sapiens, UniProt P24941); experiment: CDK2 kinase inhibitory assay (Promega CDK2 Kinase Enzyme System); format: biochemical; details: mean ± SD of three separate experiments
T1 construct: purchased Promega V2971
Source text: The experimental details for the performed biological assays; Sulforhodamine B (SRB) cytotoxicity, CDK2 kinase, Annexin V-FITC apoptosis, and cell cycle assays[86–89] were mentioned in the Supporting Information. […]
4. CDK Kinase Inhibitory Activity
CDK2 Kinase Enzyme System (catalog No. V2971) (Promega, Milan, Italy), according to the
manufacturer’s instructions. […]

[4] = system: non-tumorigenic human lung fibroblast MRC-5 cell line; experiment: Normal cell cytotoxicity, MRC-5; format: cell-based; details: MRC5, normal lung fibroblasts, mean of three separate experiments, read-out: IC50 MRC-5
Procedure: To test the safety of the newly synthesised compounds and their selectivity towards cancer cells, their cytotoxic activity was tested on non-tumorigenic human lung fibroblast MRC-5 cell line.

Panc-1 cells [5] = experiment: Cell cycle analysis (PI flow cytometry); format: cell-based, human; details: Panc-1, IC50 dose, 24 h
Procedure: as §3
a 25 cm2 flask in 5 ml of culture medium. […]
The concentration required for […]
concentration), and then cells were washed twice with ice-cold phosphate buffered saline (PBS).
Subsequently, the treated cells were collected by centrifugation, fixed in ice-cold 70% (v/v) ethanol, washed with PBS, re-suspended with 100 μg/mL RNase, stained with 40 μg/mL PI, and analyzed by flow cytometry using FACS Calibur (Becton Dickinson, BD, Franklin Lakes, NJ, USA). The cell cycle distributions were calculated using CellQuest software 5.1 (Becton

Panc-1 cells [6] = experiment: Annexin V-FITC/PI apoptosis assay; format: cell-based, human; details: Panc-1, IC50 concentration
Procedure: Anx V flowcytometry assay is featured as a helpful tool to determine whether cells death is due to the physiological apoptosis or to the non-specific necrosis.
3. Annexin V-FITC Apoptosis Assay
Phosphatidylserine externalization was assayed using Annexin V-FITC/PI apoptosis detection kit (BD Biosciences, USA) according to the manufacturer’s instructions. Pancreatic cancer Panc-1 […]
concentration. Briefly, cells were then harvested via trypsinization, and rinsed twice in PBS followed by binding buffer. Moreover, cells were re-suspended in 100 μL of binding buffer with the addition of 1 μL of FITC-Annexin V followed by an incubation period of 30 min at 4 °C. Cells were then rinsed in binding buffer and resuspended in 150 μL of binding buffer with the addition

SMILES | IC50 [1] [µM] | IC50 [2] [µM] | IC50 [3] [µM] | IC50 ([1]; Homo sapiens, MCF7) [µM] | IC50 ([2]; Homo sapiens, A549) [µM] | IC50 ([3]; Homo sapiens, PANC-1) [µM] | melting point [°C] | IC50 (CDK2) [µM] | IC50 [4] [µM] | proportion of cells in sub-G1 phase (Panc-1 cells [5]; control 2.36%) [%] | proportion of cells in G2/M phase (Panc-1 cells [5]; control 12.17%) [%] | cells population in S phase (Panc-1 cells [5]; control 41.90%) [%] | cells population in G0/G1 phase (Panc-1 cells [5]; control 43.57%) [%] | total apoptotic cells percentage (Panc-1 cells [6]; control 2.41%) [%] | early apoptotic phase percentage (Panc-1 cells [6]; lower right quadrant, control 0.59%) [%] | late apoptotic phase percentage (Panc-1 cells [6]; upper right quadrant, control 0.32%) [%]
N.N.[Cl][Pt][Cl] [Cisplatin, reference compound] | 5.45 ± 0.4 | 6.72 ± 0.37 | 6.98 ± 0.35 |  |  |  |  |  |  |  |  |  |  |  |  | 
O=C(NNC(=S)Nc1ccccc1)c1oc2ccccc2c1CN1CCN(c2ccccc2)CC1 [Compound 9a] |  |  |  | 118 ± 6.02 | 85.5 ± 6.21 | 86.9 ± 4.17 | 198 to 200 | 0.322 ± 0.016 | 406 ± 21 |  |  |  |  |  |  | 
COc1cccc(NC(=S)NNC(=O)c2oc3ccccc3c2CN2CCN(c3ccccc3)CC2)c1 [Compound 9b] |  |  |  | 98.5 ± 4.47 | 80.4 ± 4.87 | 61.9 ± 3.48 |  | 0.0849 ± 0.0043 | 289 ± 19 |  |  |  |  |  |  | 
COc1ccc(NC(=S)NNC(=O)c2oc3ccccc3c2CN2CCN(c3ccccc3)CC2)cc1 [Compound 9c] |  |  |  | 86.6 ± 5.28 | 72.2 ± 5.36 | 103 ± 6.21 | 182 to 184 | 0.214 ± 0.011 | 261 ± 20 |  |  |  |  |  |  | 
O=C(NNC(=S)Nc1cccc(F)c1)c1oc2ccccc2c1CN1CCN(c2ccccc2)CC1 [Compound 9d] |  |  |  | 53.9 ± 3.57 | 40.4 ± 2.74 | 27.2 ± 1.87 |  | 0.0777 ± 0.041 | 166 ± 14 |  |  |  |  |  |  | 
O=C(NNC(=S)Nc1ccc(F)cc1)c1oc2ccccc2c1CN1CCN(c2ccccc2)CC1 [Compound 9e] |  |  |  | 5.89 ± 0.43 | 5.24 ± 0.4 | 3.29 ± 0.2 | 218 to 220 | 0.065 ± 0.0033 | 52 ± 3 |  |  |  |  |  |  | 
O=C(NNC(=S)Nc1cccc(Cl)c1)c1oc2ccccc2c1CN1CCN(c2ccccc2)CC1 [Compound 9f] |  |  |  | 127 ± 7.56 | 127 ± 7.61 | 126 ± 7.06 |  | 0.119 ± 0.0061 | 391 ± 25 |  |  |  |  |  |  | 
O=C(NNC(=S)Nc1ccc(Cl)cc1)c1oc2ccccc2c1CN1CCN(c2ccccc2)CC1 [Compound 9g] |  |  |  | 121 ± 8.39 | 111 ± 6.38 | 122 ± 6.34 | 197 to 199 | 0.0698 ± 0.0036 | 342 ± 30 |  |  |  |  |  |  | 
O=C(NNC(=S)Nc1cccc(C(F)(F)F)c1)c1oc2ccccc2c1CN1CCN(c2ccccc2)CC1 [Compound 9h] |  |  |  | 2.92 ± 0.17 | 1.71 ± 0.12 | 0.94 ± 0.1 |  | 0.0409 ± 0.0021 | 27.7 ± 1.8 | 30.32 | 32.46 | 16.66 | 20.56 | 43.51 | 5.41 | 20.99
CC(=O)c1ccc(NC(=S)NNC(=O)c2oc3ccccc3c2CN2CCN(c3ccccc3)CC2)cc1 [Compound 9i] |  |  |  | 27.3 ± 2.05 | 29.2 ± 2.06 | 19.2 ± 1.27 |  | 0.0894 ± 0.00462 | 142 ± 11 |  |  |  |  |  |  | 
